For three compounds, anti-tumor activity and partial responses results are on record in patent US20170348376A1, “TUBULYSIN CONJUGATE FOR USE IN TREATING CANCER” (ENDOCYTE, INC., priority 2016, published 2017).

Test [1] has as its system primary human TNBC model ST738 tumors. Put plainly: Antitumor activity in TNBC ST738 model. In kind it is in vivo, Balb/c nu/nu mice. Particulars: Eribulin mesylate 1 mg/kg, once a week for two weeks (SIW×2); n=7. Here is the method:
(§1) These materials were obtained from and studies were performed at South Texas Accelerated Research Therapeutics, 4383 Medical Drive, San Antonio, Tex. 78229

Test [2] relates to primary human TNBC model ST502 tumors. Nature of the test: Antitumor activity in TNBC ST502 model. In kind it is in vivo, Balb/c nu/nu mice. The following applies: Eribulin mesylate 1 mg/kg, once a week for two weeks (SIW×2); n=7. The method, then:
as §1

Test [3] concerns primary human NSCLC model LU1147 tumors. Nature of the test: Antitumor activity in Huprime NSCLC PDX tumor model LU1147. Particulars: Docetaxel 15 mg/kg, one dose. Format: in vivo, Balb/c nu/nu mice. Here is the method: (§2) These studies were performed at Crown Bioscience (Beijing) Inc., Ground Floor, Light Muller Building, Changping Sector of Zhongguancun Scientific Park, No. 21 Huoju Road, Changping District, Beijing, P.R. China.

The test system of test [4] is primary human NSCLC model LU2505 tumors. Put plainly: Antitumor activity in Huprime NSCLC PDX tumor model LU2505. Format: in vivo, Balb/c nu/nu mice. Particulars: Docetaxel 15 mg/kg, one dose. The method, then:
as §2

Test [5] deals with primary human Ovarian model ST024 tumors. Nature of the test: Antitumor activity in Ovarian ST024 model. In kind it is in vivo, Balb/c nu/nu mice. Particulars: Paclitaxel 15 mg/kg, once a week for two weeks (SIW×2); n=7.
The subject of test [6] is FR-positive paclitaxel resistant KB-PR10 tumors. Put plainly: Antitumor activity on paclitaxel resistant KB-PR10 tumors. Format: in vivo, nu/nu mice. The following applies: paclitaxel 20 mg/kg, three times a week for two weeks (TIW×2), i.v. The method, then:
Four to six week-old female nu/nu mice (Harlan Sprague Dawley, Inc., Indianapolis, Ind.) were maintained on a standard 12 h light-dark cycle and fed ad libitum with folate-deficient chow (Harlan diet #TD00434, Harlan Teklad, Madison, Wis.) for the duration of the experiment. FR-positive paclitaxel resistant KB-PR10 cells were grown continuously as a monolayer, using folate-free RPMI medium (FFRPMI) containing 5% heat-inactivated fetal calf serum (HIFCS) at 37° C. in a 5% CO2/95% air-humidified atmosphere with no antibiotics. KB-PR10 cells (1×10^6 per nu/nu mouse) in 100 μL were injected in the subcutis of the dorsal medial area. […] Mice were treated with 20 mg/kg Paclitaxel, 2 μmol/kg EC145 (See WO2004/069159 for a description of EC145) or 1 μmol/kg Compound I on a three times a week for 2 weeks schedule when the tumors were approximately 100-145 mm^3, 101-129 mm^3 and 100-140 mm^3 in volume, respectively. The mice in the control groups received no treatment.

Test [7] deals with primary human Endometrial model ST040 tumors. Put plainly: Antitumor activity in Endometrial ST040 model. Format: in vivo, Balb/c nu/nu mice. The following applies: Paclitaxel 15 mg/kg, once a week for two weeks (SIW×2); n=3.

Structures can show the parent of a compound that is named as a salt.

With `C=C1C[C@@H]2CC[C@@]34C[C@H]5O[C@H]6[C@@H](O3)[C@H]3O[C@H](CC[C@@H]3O[C@H]6[C@H]5O4)CC(=O)C[C@@H]3[C@@H](OC)[C@@H](C[C@H](O)CN)O[C@H]3C[C@H]3O[C@@H](CC[C@@H]1O2)C[C@@H](C)C3=C` [Eribulin mesylate], the anti-tumor activity result in test [1] was “some anti-tumor activity”; in test [2], “minimal anti-tumor activity”.
For `CC(=O)O[C@@]12CO[C@@H]1C[C@H](O)[C@@]1(C)C(=O)[C@H](O)C3=C(C)[C@@H](OC(=O)[C@H](O)[C@@H](NC(=O)OC(C)(C)C)c4ccccc4)C[C@@](O)([C@@H](OC(=O)c4ccccc4)[C@H]21)C3(C)C` [Docetaxel], the anti-tumor activity entry in test [3] is “minimal anti-tumor activity”; in test [4] it was “some anti-tumor activity”.
`CC(=O)O[C@H]1C(=O)[C@@]2(C)[C@H]([C@H](OC(=O)c3ccccc3)[C@]3(O)C[C@H](OC(=O)[C@H](O)[C@@H](NC(=O)c4ccccc4)c4ccccc4)C(C)=C1C3(C)C)[C@]1(OC(C)=O)CO[C@@H]1C[C@@H]2O` [Paclitaxel]: the anti-tumor activity result in test [5] is “no anti-tumor activity”; in test [6], “little to no anti-tumor activity”; in test [7], “minimal anti-tumor activity”. In test [6], this compound returned a partial responses of 0.
